Test results as given in patent US20190233884A1 (University of Southern California, priority 2016, published 2019).

Test system: patients with refractory metastatic colorectal cancer (mCRC)
Test: PFS, OS and disease control in the training (evaluation) cohort of refractory mCRC patients receiving TAS-102 (n=52, Japan), by baseline characteristics, SNP genotype and toxicity
Format: in vivo, human
Conditions: for PFS HR (95% CI) ‡ / OS HR (95% CI)‡: multivariable; for HR for OS / HR for PFS / Disease Control Rate PD / Disease Control Rate SD / Overall Survival Median, months (95% CI) / Progression-free Survival Median, months (95% CI) / Overall Survival HR (95% CI) multivariate / Overall Survival HR (95% CI) univariate / Progression-free Survival HR (95% CI) multivariate / Progression-free Survival HR (95% CI) univariate / OS / PFS: training cohort
Description: All patients underwent the treatment in salvage-line setting. […]
(§1) Genomic DNA was extracted from peripheral whole blood in patients of all cohorts using the QIAmp Kit (Qiagen, Valencia, Calif., USA) according to the manufacturer's protocol (www.qiagen.com). The candidate SNPs were genotyped using PCR-based direct DNA sequence analysis by ABI 3100A Capillary Genetic Analyzer and Sequencing Scanner v1.0 (Applied Biosystems). Amplification of extracted DNA was carried out using both forward and reverse primers for each gene polymorphism as shown in Table 1. […] The investigators analyzing SNPs were blinded to the clinical data of the study patients.
The primary endpoint in this study was progression-free survival (PFS), and the secondary endpoints were overall survival (OS) and disease control rate (DCR). PFS was calculated from the date of starting treatment to the first observation of disease progression or death from any cause. If a patient had no disease progression or death, PFS was censored at the date of last follow up. OS was calculated from the date of starting treatment until the date of death from any cause or the date of the last follow-up, at which point OS was censored. The disease control rate (DCR) was defined as the proportion of patients who achieved a stable disease (SD) or […] according to RECISTv1.1. Chi-square test was used to examine the difference in baseline patient characteristics among the three cohorts. Allelic distribution of all SNPs by ethnicity for deviation from Hardy-Weinberg equilibrium and the allelic frequencies of SNPs were tested using the Chi-square tests with one degree of freedom. The associations between candidate SNPs and disease control, and toxicities were examined using contingency tables and Fisher's exact test. The associations of SNPs with PFS and OS were analysed using Kaplan-Meier curves and the log-rank test. Because the true mode of inheritance of candidate SNPs was not established yet, a codominant or dominant genetic model if appropriate was considered.
All patients underwent the treatment in salvage-line setting. […] In all patients, adverse events were graded according to the Common Terminology Criteria for Adverse Events, version 4.0. […]
as §1, with “tested” for “genotyped”, “Biosystems).” for “Biosystems). Amplification of extracted DNA was carried out using both forward and reverse primers for each gene polymorphism as shown in Table 1.”, “data.” for “data of the study patients.”
The primary endpoint in this study was progression-free survival (PFS), and the secondary endpoints were overall survival (OS) and disease control rate (DCR).

[1] = p21 rs1801270 Any C vs A/A, univariate
[2] = p21 rs1801270 C/C vs A/A, univariate
[3] = p53 rs1042522 Any G vs C/C, univariate
[4] = p53 rs1042522 C/G vs C/C, univariate
[5] = p53 rs1042522 G/G vs C/C, univariate
[6] = MATE1/OCT2 combination Good vs Poor, univariate
[7] = MATE1/OCT2 combination, multivariable adjusted for liver metastases and adjuvant history
[8] = MATE1 rs2289669/OCT2 rs316019 combination, Good category
[9] = MATE1 rs2289669/OCT2 rs316019 combination, Poor category
[10] = MATE1 rs2289669 G/A vs G/G, univariate
[11] = OCT2 rs316019 C/A and A/A combined vs C/C

Trifluridine/tipiracil [TAS-102]
PFS HR (95% CI) ‡ (p21 rs1801270 Any C vs A/A): 0.74 (0.37, 1.49)
OS HR (95% CI)† [1]: 0.64 (0.27, 1.56)
PFS HR (95% CI) † [1]: 0.88 (0.44, 1.74)
OS median, months (95% CI) (p21 rs1801270 C/C): 6.3 (3.1, 10.7) months
PFS median, months (95% CI) (p21 rs1801270 C/C): 2.7 (1.6, 4.6) months
OS HR (95% CI)‡ (p21 rs1801270 C/C vs A/A): 0.72 (0.24, 2.15)
PFS HR (95% CI) ‡ (p21 rs1801270 C/C vs A/A): 0.77 (0.33, 1.79)
OS HR (95% CI)† [2]: 0.85 (0.29, 2.48)
PFS HR (95% CI) † [2]: 0.97 (0.43, 2.17)
OS median, months (95% CI) (p53 rs1042522 Any G): 7.2 (5.4, 15.6+) months
PFS median, months (95% CI) (p53 rs1042522 Any G): 3.0 (2.1, 3.4) months
OS HR (95% CI)‡ (p53 rs1042522 Any G vs C/C): 1.28 (0.52, 3.19)
PFS HR (95% CI) ‡ (p53 rs1042522 Any G vs C/C): 1.10 (0.58, 2.09)
OS HR (95% CI)† [3]: 1.15 (0.47, 2.81)
PFS HR (95% CI) † [3]: 0.89 (0.48, 1.65)
OS median, months (95% CI) (p53 rs1042522 C/C): 8.7 (5.3, 14.8+) months
PFS median, months (95% CI) (p53 rs1042522 C/C): 2.5 (1.6, 4.4) months
OS median, months (95% CI) (p53 rs1042522 C/G): 6.3 (4.4, 12.4+) months
PFS median, months (95% CI) (p53 rs1042522 C/G): 3.0 (1.9, 3.5) months
OS HR (95% CI)‡ (p53 rs1042522 C/G vs C/C): 1.61 (0.64, 4.06)
PFS HR (95% CI) ‡ (p53 rs1042522 C/G vs C/C): 1.12 (0.57, 2.21)
OS HR (95% CI)† [4]: 1.35 (0.55, 3.35)
PFS HR (95% CI) † [4]: 0.86 (0.45, 1.65)
PFS median, months (95% CI) (p53 rs1042522 G/G): 2.3 (0.7, 4.6+) months
OS HR (95% CI)‡ (p53 rs1042522 G/G vs C/C): 0.38 (0.05, 3.11)
PFS HR (95% CI) ‡ (p53 rs1042522 G/G vs C/C): 1.04 (0.38, 2.86)
OS HR (95% CI)† [5]: 0.41 (0.05, 3.29)
PFS HR (95% CI) † [5]: 1.02 (0.37, 2.77)
HR for OS [6]: 0.39
HR for PFS [6]: 0.44
HR for OS [7]: 0.41
HR for PFS [7]: 0.45
Disease Control Rate PD (MATE1_OCT019 good): 20 (59%)
Disease Control Rate SD (MATE1_OCT019 good): 14 (41%)
Overall Survival Median, months (95% CI) (MATE1_OCT019 good): 8.3 (6.3, 15.6) months
Progression-free Survival Median, months (95% CI) (MATE1_OCT019 good): 3.4 (2.1, 4.1) months
Overall Survival HR (95% CI) multivariate (MATE1_OCT019 good vs poor): 0.41 (0.16, 1.04)
Overall Survival HR (95% CI) univariate (MATE1_OCT019 good vs poor): 0.39 (0.15, 0.98)
Progression-free Survival HR (95% CI) multivariate (MATE1_OCT019 good vs poor): 0.45 (0.23, 0.88)
Progression-free Survival HR (95% CI) univariate (MATE1_OCT019 good vs poor): 0.44 (0.22, 0.85)
Disease Control Rate PD (MATE1_OCT019 poor): 11 (92%)
Disease Control Rate SD (MATE1_OCT019 poor): 1 (8%)
Overall Survival Median, months (95% CI) (MATE1_OCT019 poor): 4.9 (2.8, 10.7) months
Progression-free Survival Median, months (95% CI) (MATE1_OCT019 poor): 2.3 (1.2, 2.9) months
OS [8]: 8.3 months
PFS [8]: 3.4 months
OS [9]: 4.9 months
PFS [9]: 2.3 months
Disease Control Rate PD (MATE1 rs2289669 A/A): 8 (80%)
Disease Control Rate SD (MATE1 rs2289669 A/A): 2 (20%)
Overall Survival Median, months (95% CI) (MATE1 rs2289669 A/A): 4.9 (2.8, 6.5+) months
Progression-free Survival Median, months (95% CI) (MATE1 rs2289669 A/A): 2.3 (1.2, 3.3) months
Overall Survival HR (95% CI) multivariate (MATE1 rs2289669 A/A vs G/G): 1.98 (0.56, 6.99)
Overall Survival HR (95% CI) univariate (MATE1 rs2289669 A/A vs G/G): 2.40 (0.59, 8.37)
Progression-free Survival HR (95% CI) multivariate (MATE1 rs2289669 A/A vs G/G): 0.92 (0.38, 2.24)
Progression-free Survival HR (95% CI) univariate (MATE1 rs2289669 A/A vs G/G): 0.94 (0.40, 2.18)
Disease Control Rate PD (MATE1 rs2289669 Any A): 22 (61%)
Disease Control Rate SD (MATE1 rs2289669 Any A): 14 (39%)
Overall Survival Median, months (95% CI) (MATE1 rs2289669 Any A): 8.3 (5.3, 15.6+) months
Progression-free Survival Median, months (95% CI) (MATE1 rs2289669 Any A): 3.0 (2.1, 3.7) months
Overall Survival HR (95% CI) multivariate (MATE1 rs2289669 Any A vs G/G): 0.93 (0.33, 2.59)
Overall Survival HR (95% CI) univariate (MATE1 rs2289669 Any A vs G/G): 1.03 (0.37, 2.83)
Progression-free Survival HR (95% CI) multivariate (MATE1 rs2289669 Any A vs G/G): 0.53 (0.25, 1.13)
Progression-free Survival HR (95% CI) univariate (MATE1 rs2289669 Any A vs G/G): 0.56 (0.28, 1.13)
Disease Control Rate PD (MATE1 rs2289669 G/A): 14 (54%)
Disease Control Rate SD (MATE1 rs2289669 G/A): 12 (45%)
OS (MATE1 rs2289669 G/A): 12.4 months
Overall Survival Median, months (95% CI) (MATE1 rs2289669 G/A): 12.4 (5.7, 15.6+) months
PFS (MATE1 rs2289669 G/A): 3.4 months
Progression-free Survival Median, months (95% CI) (MATE1 rs2289669 G/A): 3.4 (2.1, 4.4) months
Overall Survival HR (95% CI) multivariate (MATE1 rs2289669 G/A vs G/G): 0.59 (0.23, 2.11)
Overall Survival HR (95% CI) univariate (MATE1 rs2289669 G/A vs G/G): 0.75 (0.26, 2.28)
Progression-free Survival HR (95% CI) multivariate (MATE1 rs2289669 G/A vs G/G): 0.41 (0.18, 0.94)
Progression-free Survival HR (95% CI) univariate (MATE1 rs2289669 G/A vs G/G): 0.44 (0.20, 0.93)
HR for OS [10]: 0.76
HR for PFS [10]: 0.44
HR for PFS (MATE1 rs2289669 G/A, multivariate adjusted for liver metastases and adjuvant history): 0.41
Disease Control Rate PD (MATE1 rs2289669 G/G): 9 (90%)
Disease Control Rate SD (MATE1 rs2289669 G/G): 1 (10%)
OS (MATE1 rs2289669 G/G): 8.1 months
Overall Survival Median, months (95% CI) (MATE1 rs2289669 G/G): 8.1 (5.4, 10.7+) months
PFS (MATE1 rs2289669 G/G): 2.0 months
Progression-free Survival Median, months (95% CI) (MATE1 rs2289669 G/G): 2.0 (1.4, 3.4) months
Disease Control Rate PD (OCT2 rs316019 A/A): 1 (25%)
Disease Control Rate SD (OCT2 rs316019 A/A): 3 (75%)
Disease Control Rate PD (OCT2 rs316019 C/A): 6 (67%)
Disease Control Rate SD (OCT2 rs316019 C/A): 3 (33%)
Progression-free Survival Median, months (95% CI) (OCT2 rs316019 C/A and A/A combined): 3.0 (1.2, 6.0+) months
Overall Survival HR (95% CI) multivariate [11]: 1.74 (0.55, 5.51)
Overall Survival HR (95% CI) univariate [11]: 1.04 (0.38, 2.89)
Progression-free Survival HR (95% CI) multivariate [11]: 1.32 (0.58, 3.02)
